Laboratory results published in US11529324B2, “Use of Kv11.1 channel inhibitors for treatment of pulmonary hypertension” (Georgetown University, priority 2019, dated 2022).

How the values were obtained:
PAH-induced SD rats [1] = experiment: Dofetilide treatment of SU5416/hypoxia PAH-induced and healthy SD rats, H&E lung histology and morphometric analysis (Example 5); type: in vivo, rat
Protocol: (§1) Male SD and Fischer rats were purchased from Charles River Laboratories International, Inc., (Wilmington, Mass., USA). To induce PAH, rats were subcutaneously injected with 20 mg/kg body weight SU5416 (inhibitor of vascular endothelial growth factor (VEGF) receptor Flk/1-KDR; MedChemExpress, Monmouth Junction, N.J., USA) and maintained in hypoxia^28-30. For hypoxia, animals were placed in a chamber (30″ w×20″ d×20″ h) regulated by an OxyCycler Oxygen Profile Controller (Model A84XOV; BioSpherix, Redfield, N.Y., USA) set to maintain 10% O2 with an influx of N2 gas, located in the animal care facility at the Georgetown University Medical Center. […] Animals were fed normal rat chow.
In a first experiment to determine the effects of a Kv11.1 inhibitor (dofetilide), SD rats were divided into 4 groups that were treated with (1) DMSO, (2) dofetilide, (3) DMSO+SU5416/Hypoxia, and (4) dofetilide+SU5416/Hypoxia, respectively (n=4 for each group). Dofetilide (10 mg/kg body weight) was dissolved in DMSO and injected intraperitoneally before the injection of SU5416. For histological examination, lung tissues were fixed in 10% formalin and embedded in paraffin. The Georgetown University Animal Care and Use Committee approved all animal experiments, and the investigation conformed to the National Institutes of Health Guide for the Care and Use of Laboratory Animals.
Paraffin-embedded tissues were cut and mounted on glass slides. Tissue sections were subjected to hematoxylin and eosin (H&E) stain and immunohistochemistry using anti-smooth muscle actin (anti-SMA) antibody (Abcam, Cambridge, UK) and Kv11.1 antibody (Alomone Labs, Jerusalem, Israel).
Lung slides were analyzed for pulmonary artery wall thickness. 30 vessels were analyzed per animal in each group, and four values of external and internal diameters for thickness were measured for each vessel. The wall thickness was calculated as difference of external and internal diameters by using Fiji software.
Means±SEM were calculated and then comparisons between two groups were analyzed using a two-tailed Student's t test, while comparisons between three or more groups were analyzed using ANOVA with a Student-Newman-Keuls post-hoc test. P<0.05 was considered to be significant.
To determine if pharmacological inhibition of Kv11.1 channels would affect PAH progression, healthy and PAH-induced SD rats were treated with Kv11.1 channel-specific blocker dofetilide. Lung tissues from four groups of SD rats (four rats in each group) were examined with H&E staining. […] PAH-induced rats in group (3) had increased intimal endothelial cell proliferation, increased SPAMWT, and reduced pulmonary arterial lumen diameter compared to control rats (FIGS. 6A and 6B).

PAH-induced SD rats [2] = experiment: Lower doses of dofetilide in SU5416/hypoxia PAH-induced and healthy SD rats, H&E lung histology (Example 6); type: in vivo, rat
Protocol: as §1
(§2) In a second experiment to determine the effects of dofetilide, SD rats are divided into 4 groups that are treated with (1) DMSO, (2) dofetilide, (3) DMSO+SU5416/Hypoxia, and (4) dofetilide+SU5416/Hypoxia, respectively (n=4 for each group). Dofetilide (1000 μg/kg body weight) is dissolved in DMSO and injected intraperitoneally before the injection of SU5416. For histological examination, lung tissues are fixed in 10% formalin and embedded in paraffin.
as §2, with “third” for “second”, “(100” for “(1000”
as §2, with “fourth” for “second”, “(10” for “(1000”
To examine further if pharmacological inhibition of Kv11.1 channels would affect PAH progression, healthy and PAH-induced SD rats are treated with Kv11.1 channel-specific blocker dofetilide using lower doses (1 mg/kg, 0.1 mg/kg, 0.01 mg/kg, or 0.001 mg/kg) than was used in Example 5. Lung tissues from four groups of SD rats (four rats in each group) are examined with H&E staining. […] PAH-induced rats in Group (3) have increased intimal endothelial cell proliferation, increased SPAMWT, and reduced pulmonary arterial lumen diameter compared to control rats.

[3] = PAH-induced (SU5416/hypoxia) SD rats, dofetilide 10 mg/kg i.p. before SU5416, group (4) compared with PAH-induced group (3)
[4] = PAH-induced SD rats, dofetilide lower doses (1, 0.1, 0.01 or 0.001 mg/kg) i.p., Group (4) compared with Group (3)

## CN(CCOc1ccc(NS(C)(=O)=O)cc1)CCc1ccc(NS(C)(=O)=O)cc1 [dofetilide]
PAH-induced SD rats [1]; [3]
  pulmonary arterial lumen diameter: increased
  small pulmonary arterial media wall thickness (SPAMWT): reduced
PAH-induced SD rats [1]; dofetilide 10 mg/kg i.p., SPAMWT of PAH-induced dofetilide-treated group (4) statistically similar to control group (2)
  PAH-induced changes in SPAMWT: completely eliminated
PAH-induced SD rats [1]; healthy SD rats, dofetilide 10 mg/kg i.p. group (2) versus DMSO group (1), data not shown
  small pulmonary arterial media wall thickness (SPAMWT) in control rats: no statistical differences
PAH-induced SD rats [2]; [4]
  pulmonary arterial lumen diameter: increased
  small pulmonary arterial media wall thickness (SPAMWT): reduced
PAH-induced SD rats [2]; dofetilide lower doses (1, 0.1, 0.01 or 0.001 mg/kg), SPAMWT of Group (4) statistically similar to control Group (2)
  PAH-induced changes in SPAMWT: completely eliminates
PAH-induced SD rats [2]; healthy SD rats, dofetilide lower doses Group (2) versus DMSO Group (1)
  small pulmonary arterial media wall thickness (SPAMWT) in control rats: no statistical differences
